Each structure is given as a SMILES string. Where two headings read alike, the source gives them in different places.

These results are taken from patent US20260258009A1, “3-[(BENZO[D][1,3]DIOXOLANE-4-YL)OXY]PROPYLAMINE HYDROCHLORIDE, OPTICAL ISOMER AND CRYSTAL THEREOF, AND PREPARATION METHOD THEREFOR” (priority 2022, published 2026).

The nature of data set [1]: in vivo. The following applies: both sexes, ICR, mouse, in vivo, po. Here is the method:
(§1) The dose administered at the time of the formal test was determined based on the dose of the compound in the preliminary experiment that caused 100% and 0% death in mice. In the formal test, ICR mice were taken and randomly grouped, with 10 mice in each group, half male and half female, which were subjected to intragastric administration at 10 mL/kg.
(§2) From the results of the mouse acute toxicity test, the compound of formula (I) is least toxic. The therapeutic index (TI=LD50/ED50) was calculated based on the results of the mouse acute toxicity and efficacy test.

Data set [2] concerns ICR mice. The data set can be described thus: in vivo. The conditions noted are these: mouse acute toxicity LD50 / forced swimming ED50. As for the experimental part:
as §1, §2

The subject of data set [3] is ICR mice. As to the kind of experiment: Mouse forced swimming test. The data set is classed as in vivo. The following applies: intragastric; for Immobility time: mice, 1 h after administration, mean±SD, n=12; for minimum effective dose (MED) / ED50: mouse forced swimming; for ED50: po, read-out: ED50 (median effective dose, FST-ED50). As for the experimental part: SPF grade ICR mice were taken. The animals were grouped by weight, 12 animals per group, and the animals were allowed to acclimate for at least 3 days before behavioural test.
The behavioural test was started 1 h after intragastric administration. The mice were placed in a transparent glass cylinder with water (water depth: 15 cm, water temperature: 23-25° C.) and video recorded for 6 min (the background was an LED light panel). At the end of the time, the mice were removed from the water and the next batch of mice was subjected to the behavioural test. Water was changed after every 3 batches of tests. After the test, the video of the behavioural test was derived and the cumulative immobility time of the mice 4 min after the 6 min forced swimming period was analyzed using the Forced Swim Scant 2.0 software.
The test results are expressed as mean±SD. Comparisons between each group and the vehicle group were conducted using the t-test. The differences were considered statistically significant when. P<0.05.

A short description of data set [4]: Solubility experiment (HPLC, external standard method). The data set is classed as physicochemical. Here is the method:
The concentrated solution was placed in a 20° C. water bath thermostatic oscillator for overnight oscillation (supersaturation) and filtered. The filtrate was taken, 1 mL of which was precisely measured and placed in a 100 mL volumetric flask. A diluent (water) was added, the mixture was diluted to volume and mixed well, 1 mL of which was precisely measured and placed in a 10 mL volumetric flask. A diluent was added, the mixture was diluted to volume and mixed well as a test sample solution.
Control substance solution: A proper amount of 5 samples were respectively taken, precisely measured, dissolved in a proper amount of a diluent by ultrasonication, and diluted to give a solution containing about 0.1 mg of the sample per 1 mL. Two duplicate samples were prepared for each batch.
• (1) Preparation of buffer: About 2.6428 g ammonium sulfate was weighed and dissolved in 1000 mL of water. 2 mL of triethylamine was added, and the pH value was adjusted to 4.0 with dilute sulfuric acid. • (2) Preparation of mobile phase: Methanol-0.02 mol/L ammonium sulfate solution (2 mL triethylamine was added per 1000 mL, and the pH value was adjusted to 4.0 with dilute sulfuric acid) (45:55). 1000 mL was prepared, mixed well, filtered, and used after ultrasonic treatment.
Detection wavelength: 230 nm; flow rate: 1.0 mL/min; column temperature: 35° C.; sample injection volume: 20 μL; chromatographic column: Agilent Eclipse XDB-C18 chromatographic column (4.6×150 mm, 5 μm); mobile phase: methanol-0.02 mol/L ammonium sulfate solution (2 mL triethylamine was added per 1000 mL, and the pH value was adjusted to 4.0 with dilute sulfuric acid) (45:55).
20 μL of each solution was precisely measured, and injected separately into a liquid chromatograph. The chromatograms were recorded, and the solubility of the compounds was determined according to an external standard method.

Data set [5] is described as follows: in vivo. The following applies: both, beagle, dog; for half-life: t1/2.
Experimental: (§3) Each group had six beagle dogs, half male and half female.
(§4) Preparation of solutions: • 1) Intravenous injection administration: 0.9% Normal saline was used as a vehicle. • 2) Oral administration: According to the dose of 10 mg/kg (based on base), a corresponding mass of the drug was weighed according to the actual weight of the animal, and then filled into a capsule to be administered to the animal.
The next data set in a line: Hygroscopicity test. The data set is classed as physicochemical. The following applies: 25° C.±1° C., relative humidity 80%±2%, 24 h; for Hygroscopicity: hydrochloride. Here is the method:
17.1. A dried glass weighing bottle with a plug (outer diameter: 50 mm; height: 15 mm) was taken and placed in a suitable thermostatic dryer (with saturated ammonium chloride or ammonium sulfate solution placed in the lower part) at 25° C.±1° C. or an artificial climate box (with a set temperature at 25° C.±1° C. and relative humidity at 80%±2%) on the day before the test, and the weight (m1) was precisely measured. 17.2. An appropriate amount of the A crystal form of the compound of formula (I) was taken and spread in the above weighing bottle, with the thickness of the test sample being about 1 mm in general, and the weight (m2) was precisely measured. […] The weighing bottle was opened and placed in the above conditions at constant temperature and humidity for 24 h together with the cap. 17.4. The weighing bottle was capped, and the weight (m3) was precisely measured. [formula]

Data set [6] in a line: Experiments of influencing factors (crystal form stability, XRPD). The data set is classed as physicochemical. The following applies: listed as A crystal form, hydrochloride; for Crystal form after High temperature of 60° C. / Crystal form after Illumination of 5000 1x / Crystal form after High humidity of 92.5%: XRPD; for Crystal form after Illumination of 5000 1x: photostability tester 5000 lx; for Crystal form after High humidity of 92.5%: relative humidity 92.5%. Here is the method: High temperature experiment: About 1 g of the A, B, and C crystal forms were respectively weighed, placed in a clean watch glass, and placed at 60° C. for 10 days. The samples were taken on day 0, day 5, day 10, and day 30 for XRPD analysis.
High humidity experiment: About 1 g of the A, B, and C crystal form samples were respectively weighed, placed in a clean watch glass, and placed at a relative humidity of 92.5% for 10 days. The samples were taken on day 0, day 5, day 10, and day 30 for XRPD analysis.
Illumination experiment: About 1 g of the A, B, and C crystal form samples were respectively weighed, placed in a clean watch glass, laid flat, and placed in a photostability tester (the illumination was 5000 lx) for 10 days. The samples were taken on day 0, day 5, day 10, and day 30 for XRPD analysis.

For data set [7] the following is noted: both, beagle, dog, in vivo.
Experimental: as §3, §4
Where [8] appears, read: 95% confidence interval of LD50.
Where [9] appears, read: Mouse acute toxicity LD50 (median lethal dose).

Consider `CNCC[C@H](Oc1cccc2c1OCO2)c1ccccc1.Cl` [(S)—N-methyl-3-phenyl-3-[(benzo[d][1,3]dioxolan-4-yl)oxy]propylamine hydrochloride], for which the LD50 at 7 days in “in vivo [1]” (setting [8]) was 13.1 to 91.3 mg/kg; in “in vivo [1]” (setting [9]), 66.8 mg/kg. In addition, the “TI = LD50/ED50 (therapeutic index)” value with ICR mice [2] is 38.4. Besides, the Immobility time with ICR mice [3] (0.2 mg/kg) turned out to be 180.4 ± 29.4 s; in the data set on ICR mice [3] (0.4 mg/kg), 167.5 ± 45.7 s; in the data set on ICR mice [3] (0.8 mg/kg), 147.0 ± 65.4 s; with ICR mice [3] (1.6 mg/kg) it was 94.1 ± 35.4 s; with ICR mice [3] (15 mg/kg) it was 8.9 ± 8.7 s; in the data set with ICR mice [3] (30 mg/kg) it was 6.2 ± 9.7 s. Besides, the “minimum effective dose (MED)” value with ICR mice [3] turned out to be 1.6 mg/kg. Further, in the data set with ICR mice [3], the ED50 was determined as 1.74 mg/kg.

As to `CNCC[C@@H](Oc1cccc2c1OCO2)c1ccccc1.Cl` [Compound of formula I, (R)—N-methyl-3-phenyl-3-[(benzo[d][1,3]dioxolan-4-yl)oxy]propylamine hydrochloride], the solubility in data set [4] (20 °C, water, thermodynamic from solid, Solubility) amounted to 33.2 mg/mL. The LD50 at 7 days is 106 to 125 mg/kg in the data set “in vivo [1]” (setting [8]) and 116 mg/kg in the data set “in vivo [1]” (setting [9]). In addition, in the data set with ICR mice [2], the “TI = LD50/ED50 (therapeutic index)” value came to 120.4. The Immobility time with ICR mice [3] (0.2 mg/kg) is recorded as 178.6 ± 17.0 s; in the data set with ICR mice [3] (0.4 mg/kg), 105.0 ± 72.1 s; with ICR mice [3] (0.8 mg/kg), 106.0 ± 59.7 s; in the data set with ICR mice [3] (1.6 mg/kg) it was 55.4 ± 41.1 s; in the data set on ICR mice [3] (15 mg/kg) it was 13.0 ± 23.3 s; with ICR mice [3] (30 mg/kg) it was 7.6 ± 4.4 s. Moreover, in the data set on ICR mice [3], the “minimum effective dose (MED)” value amounted to 0.4 mg/kg. In addition, the ED50 with ICR mice [3] is 0.96 mg/kg. For the same molecule, the AUC(0-t) in “in vivo [5]” (iv, 0.3 mg/kg) was determined as 117 ng·h/mL; in “in vivo [5]” (po, 1 mg/kg) it was 100 ng·h/mL. The AUC(0-inf) in “in vivo [5]” (iv, 0.3 mg/kg) is 119 ng·h/mL; in “in vivo [5]” (po, 1 mg/kg), 102 ng·h/mL. Besides, the Cmax was 80.4 ng/mL in “in vivo [5]” (iv, 0.3 mg/kg) and 28.9 ng/mL in “in vivo [5]” (po, 1 mg/kg). The Tmax came to 0.08 h in “in vivo [5]” (iv, 0.3 mg/kg) and 1.23 h in the data set “in vivo [5]” (po, 1 mg/kg). For the same molecule, the half-life is 2.15 h in “in vivo [5]” (iv, 0.3 mg/kg) and 2.36 h in the data set “in vivo [5]” (po, 1 mg/kg). Further, the bioavailability in “in vivo [5]” (po, Bioavailability) was 25.7%.

In turn, `CNCC[C@@H](Oc1cccc2c1OCO2)c1ccccc1.Cl` [Crystal form A of compound of formula (I)] [(R)—N-methyl-3-phenyl-3-[(benzo[d][1,3]dioxolan-4-yl)oxy]propylamine hydrochloride] showed a solubility in data set [4] of 35.55 mg/mL. The same molecule showed a Weight gain in the data set “Hygroscopicity test” of 0.01%. Further, the Hygroscopicity result in “Hygroscopicity test” (listed as A crystal form of the compound of formula (I)) is listed as “no or almost no hygroscopicity”. Moreover, the Hygroscopicity result in “Hygroscopicity test” (listed as A crystal form) is “no or almost no hygroscopicity”. Also, in data set [6] (5 days), the “Crystal form after High temperature of 60° C.” value (“Crystal form … of 60° C.” for short) was “Crystal form A”, the “Crystal form after Illumination of 5000 1x” value (shortened to “Crystal form … of 5000 1x”) was “Crystal form A” and the “Crystal form after High humidity of 92.5%” value (“Crystal form … of 92.5%” for short) is reported as “Crystal form A”. In data set [6] (10 days), the “Crystal form … of 60° C.” value is “Crystal form A”, the “Crystal form … of 5000 1x” value is given as “Crystal form A” and the “Crystal form … of 92.5%” value is listed as “Crystal form A”. Further, in data set [6] (30 days), the “Crystal form … of 60° C.” value was “Crystal form A”, the “Crystal form … of 5000 1x” value is “Crystal form A” and the “Crystal form … of 92.5%” value is on record as “Crystal form A”. Further, the “Crystal form stability (experimental conclusion)” value in data set [6] (high temperature, high humidity, illumination, condition stated in the value) was “can keep stable under high temperature, high humidity, and illumination”. Besides, in data set [7] (iv, 0.3 mg/kg), the “AUC(0-t)” value was found to be 123.7 ng·h/mL, the “AUC(0-∞)” value was 124.5 ng·h/mL, the Cmax is 83.6 ng/mL and the Tmax is on record as 0.08 h. Moreover, the t1/2 in data set [7] (iv, 0.3 mg/kg) was determined as 2.08 h. In data set [7] (po), this molecule yielded a bioavailability of 28.2%. In addition, in data set [7] (po, 1 mg/kg), the “AUC(0-t)” value was 116.3 ng·h/mL, the “AUC(0-∞)” value was 117.1 ng·h/mL, the Cmax came to 35.3 ng/mL and the Tmax is 0.92 h. The t1/2 in data set [7] (po, 1 mg/kg) is reported as 2.48 h.

In the case of `CNCCC(Oc1cccc2c1OCO2)c1ccccc1.Cl` (centres unmarked) [N-methyl-3-phenyl-3-[(benzo[d][1,3]dioxolan-4-yl)oxy]propylamine hydrochloride], the solubility in data set [4] (water, 20 °C, water, thermodynamic from solid, Water, 20° C., overnight oscillation, read-out: Solubility) stood at 1500 mg/mL. Also, the LD50 at 7 days in “in vivo [1]” (mice, single intragastric administration, observed within 7 days, read-out: Mouse acute toxicity LD50 (median lethal dose)) was 112 mg/kg; in the data set “in vivo [1]” (mice, single intragastric administration, read-out: 95% confidence interval of LD50), 102 to 122 mg/kg. Further, the “TI = LD50/ED50 (therapeutic index)” value in the data set with ICR mice [2] turned out to be 62.0. For the same molecule, the Immobility time in the data set on ICR mice [3] (0.2 mg/kg) came out at 165.3 ± 37.2 s; with ICR mice [3] (0.4 mg/kg), 125.6 ± 53.6 s; in the data set with ICR mice [3] (0.8 mg/kg), 86.9 ± 53.4 s; in the data set with ICR mice [3] (1.6 mg/kg), 83.2 ± 52.9 s; with ICR mice [3] (15 mg/kg), 64.3 ± 73.7 s; in the data set with ICR mice [3] (30 mg/kg), 3.7 ± 5.9 s. Further, in the data set on ICR mice [3], the “minimum effective dose (MED)” value came to 0.4 mg/kg. Moreover, the ED50 with ICR mice [3] was found to be 1.81 mg/kg.

The LD50 is the dose expected to kill half of the subjects tested. Usually ED50 stands for the dose at which the effect has come halfway, by size or by number of responders. A word on the solubility: it is how much of the substance goes into solution per volume. As a reminder, the AUC(0-t) is exposure summed from dosing to a finite time, without extrapolation to infinity. What is called AUC(0-inf) is total exposure, with the tail of the curve extrapolated. Lower therefore signals low exposure. One may read the Cmax as the peak of the concentration-time curve. In general, Tmax refers to the time from dosing to the highest level. One may read the half-life as how long it takes for the measured level to halve. A lower half-life goes with rapid decline. The bioavailability is dose-corrected exposure relative to a reference, in per cent.
